{
  "source": "patent US9334299B2",
  "about": "“Water-soluble camptothecin derivative, pharmaceutical composition and use thereof” (Hunan Fangshenghuamei Medical Tech. Co. Ltd., priority 2011, dated 2016)",
  "format_in_all_cases": "cell-based",
  "key": {"[1]": {"tested_on": "H146 (small cell lung cancer) cells", "experiment": "CellTiter-Glo cell viability assay, H146 cells", "details": "for viability at 0.1 µM / viability at 1 µM / viability at 10 µM: Homo sapiens, read-out: H146 cell viability after 48 hours of treatment; for cell killing / dose-dependent cell death in H146 cells, result in words: compared with CPT, floxuridine, etoposide (FIGS. 4-5, Table 3)", "source_text": "(§1) To determine the ability of Compound Dix-905 (also referred as Compound 905) to kill cancer cells, we performed a cell viability assay via CellTiter-Glo kit (Promega) using various cell lines. The kit measures the ATP levels via an enzymatic Luciferase assay. Viable cells, having normal metabolic rates and producing normal levels of ATP, will is have a high turnover of Luciferase substrates, which requires ATP for the enzymatic reaction and emits luminescent signals. By contrast, dying cells will have lower outcome of luminescent signals since their metabolic functions are diminished. The emitted luminescent signals will then be captured by a luminometer.\n(§2) To perform the viability assay, small cell lung cancer cells (ATCC catalog No. H146), breast cancer cells (ATCC catalog No. MDAMB231) or colon cancer cells (ATCC catalog No. HCT116) were seeded in 96 wells and treated via Compound Dix-905 and other anti-cancer drugs for a time period of 24, 48, 72 hours. At each respective time point, cells were mixed with Cell Titer Glow reagents for 1 h and evaluated for luminescent signals.\nIn the “CPT” group, the H146 (small cell lung cancer) cells were treated with CPT (dissolved in DMSO) in 4 concentrations (0, 0.1, 1.0, 10 μM, respectively) for 48 hours; In the Dix-902, Dix-904 and Dix-906 groups, H146 (small cell lung cancer) cells were treated respectively with the corresponding compounds (dissolved in a saline solution) in 4 concentrations (0, 0.1, 1.0, 10 μM, respectively) for 48 hours."}, "[2]": {"tested_on": "HCT116 (colon cancer) cells", "experiment": "CellTiter-Glo cell viability assay, HCT116 cells", "details": "for viability at 0.1 µM / viability at 1 µM / viability at 10 µM: Homo sapiens, HCT-116, 48 hours, read-out: HCT116 cell viability after 48 hours of treatment; for cell killing / dose-dependent cell death in HCT116 cells, result in words: compared with CPT, 5-FU, Etoposide (FIGS. 7-8, Table 5)", "source_text": "as §1, §2\nIn the “CPT” group, the is HCT116 cells were treated with CPT (dissolved in DMSO) in 4 concentrations (0, 0.1, 1.0, 10 μM, respectively) for 48 hours. In the Dix-902, Dix-904 and Dix-906 groups, HCT116 cells were treated respectively with the corresponding compounds (dissolved in a saline solution) in 4 concentrations (0, 0.1, 1.0, 10 μM, respectively) for 48 hours."}, "[3]": {"tested_on": "MDAMB231 (breast cancer) cells", "experiment": "CellTiter-Glo cell viability assay, MDAMB231 cells", "details": "Homo sapiens, read-out: MDAMB231 cell viability after 48 hours of treatment", "source_text": "as §1, §2\nIn the “CPT” group, the MDAMB231 (breast cancer) cells were treated with CPT (dissolved in DMSO) in 4 concentrations (0, 0.1, 1.0, 10 μM, respectively) for 48 hours. In the Dix-902, Dix-904 and Dix-906 groups, MDAMB231 (breast cancer) cells were treated respectively with the corresponding compounds (dissolved in a saline solution) in 4 concentrations (0, 0.1, 1.0, 10 μM, respectively) for 48 hours."}, "[4]": {"tested_on": "H1693 cells", "experiment": "Cell viability (cell killing) assay, H1693 cells", "details": "compared with CPT, floxuridine, etoposide (FIGS. 1-2)"}, "[5]": {"tested_on": "Caspase 3/7 in H146 cells", "experiment": "Caspase-Glo 3/7 caspase activation assay, H146 cells", "details": "FIG. 6", "method": "(§3) For caspase activation, similar assays could be performed using the Caspase-Glo 3/7kit from Promega after cells were treated with respective agents for various time points. The mechanism of Caspase 3/7 Glow assay is by using Caspase 3/7 substrate fused with Luciferase substrate, which could be cleaved by activated Caspase 3/7. The released Luciferase substrate then undergoes an enzymatic reaction and emits luminescent signals. In contrast to the viability assay, the limiting step for this assay is caspase activation. Dying cells bearing the activated Casapses will have a high readout of luminescent signals in a luminometer."}, "[6]": {"tested_on": "Caspase 3/7 in H1693 cells", "experiment": "Caspase-Glo 3/7 caspase activation assay, H1693 cells", "details": "FIG. 3", "method": "as §3"}},
  "note": "“Also recorded” adds a separate entry of the source. Like-named read-outs stand apart in the source and are kept apart here.",
  "data": [
    {"smiles": "CC[C@@]1(OP(=O)(O)OC[C@H]2O[C@@H](n3cnc4c(N)ncnc43)C[C@@H]2O)C(=O)OCc2c1cc1n(c2=O)Cc2cc3ccccc3nc2-1", "note": "[Dix-904]", "values": [
      {"measurement": "viability at 0.1 µM", "setting": "[1]; NCI-H146, 48 h", "value": 67, "unit": "%"},
      {"measurement": "viability at 1 µM", "setting": "[1]; NCI-H146, 48 h", "value": 44, "unit": "%"},
      {"measurement": "viability at 10 µM", "setting": "[1]; NCI-H146, 48 h", "value": 19, "unit": "%"},
      {"measurement": "cell killing / dose-dependent cell death in H146 cells, result in words", "setting": "[1]", "value": "similarly to or even slightly better than that of CPT"},
      {"measurement": "viability at 0.1 µM", "setting": "[2]", "value": 95, "unit": "%"},
      {"measurement": "viability at 1 µM", "setting": "[2]", "value": 70, "unit": "%"},
      {"measurement": "viability at 10 µM", "setting": "[2]", "value": 10, "unit": "%"},
      {"measurement": "cell killing / dose-dependent cell death in HCT116 cells, result in words", "setting": "[2]", "value": "higher than that CPT"},
      {"measurement": "viability at 0.1 µM", "setting": "[3]; MDA-MB-231, 48 h", "value": 13, "unit": "%"},
      {"measurement": "viability at 1 µM", "setting": "[3]; MDA-MB-231, 48 h", "value": 3, "unit": "%"},
      {"measurement": "viability at 10 µM", "setting": "[3]; MDA-MB-231, 48 h", "value": 1, "unit": "%"}
    ]},
    {"smiles": "CC[C@@]1(OP(=O)(O)OC[C@H]2O[C@@H](n3ccc(N)nc3=O)C[C@@H]2O)C(=O)OCc2c1cc1n(c2=O)Cc2cc3ccccc3nc2-1", "note": "[Dix-902]", "values": [
      {"measurement": "viability at 0.1 µM", "setting": "[1]; NCI-H146, 48 h", "value": 66, "unit": "%"},
      {"measurement": "viability at 1 µM", "setting": "[1]; NCI-H146, 48 h", "value": 43, "unit": "%"},
      {"measurement": "viability at 10 µM", "setting": "[1]; NCI-H146, 48 h", "value": 20, "unit": "%"},
      {"measurement": "cell killing / dose-dependent cell death in H146 cells, result in words", "setting": "[1]", "value": "similarly to or even slightly better than that of CPT"},
      {"measurement": "viability at 0.1 µM", "setting": "[2]", "value": 87, "unit": "%"},
      {"measurement": "viability at 1 µM", "setting": "[2]", "value": 68, "unit": "%"},
      {"measurement": "viability at 10 µM", "setting": "[2]", "value": 9, "unit": "%"},
      {"measurement": "cell killing / dose-dependent cell death in HCT116 cells, result in words", "setting": "[2]", "value": "higher than that CPT"},
      {"measurement": "viability at 0.1 µM", "setting": "[3]; MDA-MB-231, 48 h", "value": 15, "unit": "%"},
      {"measurement": "viability at 1 µM", "setting": "[3]; MDA-MB-231, 48 h", "value": 4, "unit": "%"},
      {"measurement": "viability at 10 µM", "setting": "[3]; MDA-MB-231, 48 h", "value": 2, "unit": "%"}
    ]},
    {"smiles": "CC[C@@]1(O)C(=O)OCc2c1cc1n(c2=O)Cc2cc3ccccc3nc2-1", "note": "[CPT, Camptothecin]", "values": [
      {"measurement": "viability at 0.1 µM", "setting": "[1]; NCI-H146, 0.1 μM, 48 hours", "value": 65, "unit": "%"},
      {"measurement": "viability at 1 µM", "setting": "[1]; NCI-H146, 1.0 μM, 48 hours", "value": 51, "unit": "%"},
      {"measurement": "viability at 10 µM", "setting": "[1]; NCI-H146, 10 μM, 48 hours", "value": 24, "unit": "%"},
      {"measurement": "viability at 0.1 µM", "setting": "[2]", "value": 96, "unit": "%"},
      {"measurement": "viability at 1 µM", "setting": "[2]", "value": 76, "unit": "%"},
      {"measurement": "viability at 10 µM", "setting": "[2]", "value": 11, "unit": "%"},
      {"measurement": "cell killing / dose-dependent cell death in HCT116 cells, result in words", "setting": "[2]", "value": "Dose-dependent cell death"},
      {"measurement": "viability at 0.1 µM", "setting": "[3]; MDA-MB-231, 0.1 μM, 48 hours", "value": 13, "unit": "%"},
      {"measurement": "viability at 1 µM", "setting": "[3]; MDA-MB-231, 1.0 μM, 48 hours", "value": 5, "unit": "%"},
      {"measurement": "viability at 10 µM", "setting": "[3]; MDA-MB-231, 10 μM, 48 hours", "value": 3, "unit": "%"}
    ]},
    {"smiles": "CC[C@@]1(OP(=O)(O)OC[C@H]2O[C@@H](n3cc(F)c(=O)[nH]c3=O)C[C@@H]2O)C(=O)OCc2c1cc1n(c2=O)Cc2cc3ccccc3nc2-1", "note": "[Dix-905]", "values": [
      {"measurement": "cell killing / dose-dependent cell death in H146 cells, result in words", "setting": "[1]", "value": "cell killing response in H146 better than that of CPT; also recorded: more effective cell killing in H146 than that of CPT, floxuridine, and etoposide"},
      {"measurement": "cell killing in H1693 cells, result in words", "setting": "[4]", "value": "cell killing response better than that of CPT; also recorded: more effective cell killing in H1693 than that of CPT, floxuridine, and etoposide"},
      {"measurement": "cell death in H146 via Caspase activation (apoptotic pathway)", "setting": "[5]", "value": "time- and dose-dependent cell death"},
      {"measurement": "cell death in H1693 via Caspase activation (apoptotic pathway)", "setting": "[6]", "value": "time- and dose-dependent cell death"},
      {"measurement": "cell killing / dose-dependent cell death in HCT116 cells, result in words", "setting": "[2]", "value": "Dose-dependent cell death"},
      {"measurement": "cell killing / dose-dependent cell death in HCT116 cells, result in words", "setting": "[2]; listed as DIX-905", "value": "more effective in cell killing than that of CPT, 5-FU and Etoposide"}
    ]},
    {"smiles": "CC[C@@]1(OP(=O)(O)OC[C@H]2O[C@@H](n3cc(C)c(=O)[nH]c3=O)C[C@@H]2O)C(=O)OCc2c1cc1n(c2=O)Cc2cc3ccccc3nc2-1", "note": "[Dix-906]", "values": [
      {"measurement": "viability at 0.1 µM", "setting": "[1]; NCI-H146, 0.1 μM, 48 hours", "value": 64, "unit": "%"},
      {"measurement": "viability at 1 µM", "setting": "[1]; NCI-H146, 1.0 μM, 48 hours", "value": 45, "unit": "%"},
      {"measurement": "viability at 10 µM", "setting": "[1]; NCI-H146, 10 μM, 48 hours", "value": 21, "unit": "%"},
      {"measurement": "cell killing / dose-dependent cell death in H146 cells, result in words", "setting": "[1]", "value": "similarly to or even slightly better than that of CPT"},
      {"measurement": "viability at 0.1 µM", "setting": "[2]", "value": 90, "unit": "%"},
      {"measurement": "viability at 1 µM", "setting": "[2]", "value": 71, "unit": "%"},
      {"measurement": "viability at 10 µM", "setting": "[2]", "value": 8, "unit": "%"},
      {"measurement": "cell killing / dose-dependent cell death in HCT116 cells, result in words", "setting": "[2]", "value": "higher than that CPT"},
      {"measurement": "viability at 0.1 µM", "setting": "[3]; MDA-MB-231, 0.1 μM, 48 hours", "value": 14, "unit": "%"},
      {"measurement": "viability at 1 µM", "setting": "[3]; MDA-MB-231, 1.0 μM, 48 hours", "value": 4, "unit": "%"},
      {"measurement": "viability at 10 µM", "setting": "[3]; MDA-MB-231, 10 μM, 48 hours", "value": 3, "unit": "%"}
    ]}
  ]
}
